These are literature values, as cited in patent US20090022799A1, “COMPOSITIONS THAT CONTAIN BETA-GLUCAN TO BE USED FOR THE PREVENTION AND TREATMENT OF DISEASE AND METHODS FOR THEIR USE” (priority 2006, published 2009).

For data set [1] the following is noted: forms a suspension in aqueous solution.
For data set [2] the following is noted: β-Glucan particles.
For data set [3] the following is noted: human clinical trials.

Counter-ions that a name gives are not always drawn.

For the compound `[H]/N=C(\N/C(=N/[H])NCCCCCCNC(=N)NC(=N)Nc1ccc(Cl)cc1)Nc1ccc(Cl)cc1` [Chlorhexidine hydrochloride, chlorhexidine hydrochloride, reference compound], the solubility in water result in data set [1] is given as “limited solubility”.

With Beta-(1→3)-d-Glucan [β-Glucan], the median particle size in data set [2] was 3.7-4.6 μm. Also, the solubility in water entry in data set [1] is given as “insoluble”. Besides, the safety and tolerability result in data set [3] is “safe and well-tolerated”.
